Reference: ChEMBL document CHEMBL1201862, “PubChem BioAssay data set” (2004)
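Exposure lasted 48 hours, with cells grown in 96-well plates and compounds tested at five concentrations. GI50: concentration for 50% inhibition of growth.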 Activity calls are given as the source filed them. Rule as the data show it: active = GI50 up to about 1.1 µM and inactive = higher.

Tests used:
Experiment in all cases: DTP human tumour cell line panel, 48 h
A498 = system: A498
A549 = system: A549
EKVX = system: EKVX
HOP-62 = system: HOP-62
HT-29 = system: HT-29
K562 = system: K562
M14 = system: M14
MDA-MB-435 = system: MDA-MB-435
NCI/ADR-RES = system: NCI/ADR-RES
OVCAR-4 = system: OVCAR-4
OVCAR-8 = system: OVCAR-8
RPMI-8226 = system: RPMI-8226
SF-268 = system: SF-268
SK-MEL-28 = system: SK-MEL-28
SK-OV-3 = system: SK-OV-3
SW-620 = system: SW-620
U-251 = system: U-251
UACC-257 = system: UACC-257
UACC-62 = system: UACC-62
HOP-92 = system: HOP-92

| Structure (SMILES) | GI50 (A498) | GI50 (A549) | GI50 (EKVX) | GI50 (HOP-62) | GI50 (HT-29) | GI50 (K562) | GI50 (M14) | GI50 (MDA-MB-435) | GI50 (NCI/ADR-RES) | GI50 (OVCAR-4) | GI50 (OVCAR-8) | GI50 (RPMI-8226) | GI50 (SF-268) | GI50 (SK-MEL-28) | GI50 (SK-OV-3) | GI50 (SW-620) | GI50 (U-251) | GI50 (UACC-257) | GI50 (UACC-62) | GI50 (HOP-92) |
| --- | --- | --- | --- | --- | --- | --- | --- | --- | --- | --- | --- | --- | --- | --- | --- | --- | --- | --- | --- | --- |
| CCN(CC)Cc1ccc(C(=S)Nc2ccc(C)cc2)s1 | 13.3 µM (inactive) | 16.6 µM (inactive) | 16.2 µM (inactive) | 17.5 µM (inactive) | 4.08 µM (inactive) | 6.59 µM (inactive) | 15.1 µM (inactive) | 12.2 µM (inactive) | 19.2 µM (inactive) | 21.6 µM (inactive) | 14.8 µM (inactive) | 14.7 µM (inactive) | 1.25 µM (inactive) | 15 µM (inactive) | 15.6 µM (inactive) | 20.2 µM (inactive) | 14.7 µM (inactive) | 11.4 µM (inactive) | 14.2 µM (inactive) | – |
| COc1ccc(-c2c(C#N)c(O)n(C3OC(CO)C(O)C(O)C3O)c(=S)c2C#N)cc1 (stereo not drawn) | > 100 µM (inactive) | > 100 µM (inactive) | – | > 100 µM (inactive) | > 100 µM (inactive) | > 100 µM (inactive) | > 100 µM (inactive) | > 100 µM (inactive) | > 100 µM (inactive) | – | > 100 µM (inactive) | > 100 µM (inactive) | > 100 µM (inactive) | > 100 µM (inactive) | > 100 µM (inactive) | > 100 µM (inactive) | – | > 100 µM (inactive) | > 100 µM (inactive) | – |
| C=C1[C@@H](OC(C)=O)[C@H]2[C@@H](OC(C)=O)[C@@](C)(OC(C)=O)C[C@]2(OC(C)=O)C(=O)[C@@H](C)/C=C/C(C)(C)C(=O)C[C@H]1OC(C)=O | – | > 100 µM (inactive) | 83.9 µM (inactive) | > 100 µM (inactive) | 36.6 µM (inactive) | > 100 µM (inactive) | > 100 µM (inactive) | > 100 µM (inactive) | 88.1 µM (inactive) | 35.2 µM (inactive) | > 100 µM (inactive) | > 100 µM (inactive) | – | > 100 µM (inactive) | > 100 µM (inactive) | – | > 100 µM (inactive) | > 100 µM (inactive) | 83.8 µM (inactive) | 79.3 µM (inactive) |
| COc1cc(NCCC(=O)O)c2ncccc2c1 | > 100 µM (inactive) | > 100 µM (inactive) | > 100 µM (inactive) | > 100 µM (inactive) | > 100 µM (inactive) | > 100 µM (inactive) | > 100 µM (inactive) | > 100 µM (inactive) | > 100 µM (inactive) | > 100 µM (inactive) | > 100 µM (inactive) | – | > 100 µM (inactive) | > 100 µM (inactive) | – | > 100 µM (inactive) | > 100 µM (inactive) | > 100 µM (inactive) | > 100 µM (inactive) | > 100 µM (inactive) |
| COC(=O)[C@@H](NS(=O)(=O)CC12CCC(CC1)C2(C)C)C(C)(C)C | > 100 µM (inactive) | > 100 µM (inactive) | > 100 µM (inactive) | – | > 100 µM (inactive) | > 100 µM (inactive) | > 100 µM (inactive) | > 100 µM (inactive) | > 100 µM (inactive) | > 100 µM (inactive) | > 100 µM (inactive) | – | > 100 µM (inactive) | > 100 µM (inactive) | > 100 µM (inactive) | > 100 µM (inactive) | > 100 µM (inactive) | > 100 µM (inactive) | > 100 µM (inactive) | > 100 µM (inactive) |
| C=C(C)C(=O)OC1C[C@H](COC(C)=O)C2CC=C(CO)C2C2OC(=O)C(=C)[C@H]12 (stereo partly drawn) | > 100 µM (inactive) | > 100 µM (inactive) | > 100 µM (inactive) | > 100 µM (inactive) | 32.3 µM (inactive) | 14.9 µM (inactive) | 16.3 µM (inactive) | 35.3 µM (inactive) | 45.4 µM (inactive) | – | > 100 µM (inactive) | 12.4 µM (inactive) | 23.6 µM (inactive) | 32.3 µM (inactive) | > 100 µM (inactive) | 16.2 µM (inactive) | > 100 µM (inactive) | 38.8 µM (inactive) | 39.6 µM (inactive) | – |
| O=[N+]([O-])c1cccc2c(/N=N/c3ccc4ccccc4c3O)c(O)cc(S(=O)(=O)O)c12 | – | 32.7 µM (inactive) | 79.3 µM (inactive) | 18.2 µM (inactive) | 34.1 µM (inactive) | > 100 µM (inactive) | 21.6 µM (inactive) | 23.8 µM (inactive) | 17 µM (inactive) | 57.9 µM (inactive) | 21.1 µM (inactive) | > 100 µM (inactive) | 23.6 µM (inactive) | 44.3 µM (inactive) | 76.2 µM (inactive) | 31.6 µM (inactive) | 9.59 µM (inactive) | 31.8 µM (inactive) | 7.78 µM (inactive) | 55.7 µM (inactive) |
| Nc1ncc(/C=N/O)c(NCC2(CO)CC(CCc3ccccc3)C2)n1 (stereo not drawn) | 11 µM (inactive) | 2.48 µM (inactive) | – | 11.3 µM (inactive) | 2.67 µM (inactive) | 0.144 µM (active) | – | 11.1 µM (inactive) | 5.82 µM (inactive) | 8.26 µM (inactive) | 11.1 µM (inactive) | 5.73 µM (inactive) | 23.9 µM (inactive) | – | – | – | 12 µM (inactive) | 10.9 µM (inactive) | 12.3 µM (inactive) | 12.4 µM (inactive) |
| COc1cc(-c2oc3c(OC)cc(OC)c(O)c3c(=O)c2OC)cc(OC)c1OC | – | > 100 µM (inactive) | > 100 µM (inactive) | 2.06 µM (inactive) | > 100 µM (inactive) | > 100 µM (inactive) | > 100 µM (inactive) | > 100 µM (inactive) | 5.46 µM (inactive) | 2.23 µM (inactive) | 5.21 µM (inactive) | > 100 µM (inactive) | 6.95 µM (inactive) | > 100 µM (inactive) | 3.29 µM (inactive) | 6.28 µM (inactive) | 4.65 µM (inactive) | – | 23.6 µM (inactive) | 15.6 µM (inactive) |
| CC[C@@]12C=CC(=S)N(CCSc3ccccc3)[C@@H]1c1c(n(S(=O)(=O)c3ccc(OC)cc3)c3ccccc13)CC2 | > 100 µM (inactive) | > 100 µM (inactive) | > 100 µM (inactive) | > 100 µM (inactive) | > 100 µM (inactive) | > 100 µM (inactive) | > 100 µM (inactive) | > 100 µM (inactive) | > 100 µM (inactive) | – | > 100 µM (inactive) | – | > 100 µM (inactive) | > 100 µM (inactive) | > 100 µM (inactive) | > 100 µM (inactive) | > 100 µM (inactive) | > 100 µM (inactive) | > 100 µM (inactive) | > 100 µM (inactive) |
| CC(C)OP(=O)(CN(C)/C(F)=N\C(F)(F)F)OC(C)C | > 100 µM (inactive) | > 100 µM (inactive) | > 100 µM (inactive) | > 100 µM (inactive) | > 100 µM (inactive) | > 100 µM (inactive) | > 100 µM (inactive) | > 100 µM (inactive) | > 100 µM (inactive) | – | > 100 µM (inactive) | – | > 100 µM (inactive) | > 100 µM (inactive) | > 100 µM (inactive) | > 100 µM (inactive) | > 100 µM (inactive) | > 100 µM (inactive) | > 100 µM (inactive) | > 100 µM (inactive) |
| [N-]=[N+]=Nc1cc(=O)n(-c2ccccc2)c(=O)n1-c1ccccc1 | – | > 100 µM (inactive) | > 100 µM (inactive) | > 100 µM (inactive) | > 100 µM (inactive) | > 100 µM (inactive) | > 100 µM (inactive) | > 100 µM (inactive) | > 100 µM (inactive) | > 100 µM (inactive) | > 100 µM (inactive) | > 100 µM (inactive) | > 100 µM (inactive) | > 100 µM (inactive) | > 100 µM (inactive) | > 100 µM (inactive) | > 100 µM (inactive) | > 100 µM (inactive) | 67 µM (inactive) | > 100 µM (inactive) |
| CS(=O)(=O)OCC1CN(S(C)(=O)=O)c2cc(O)ccc21 (stereo not drawn) | 2.64 µM (inactive) | 3.43 µM (inactive) | 4.37 µM (inactive) | 2.47 µM (inactive) | 2.81 µM (inactive) | 2.43 µM (inactive) | – | 2.02 µM (inactive) | 3.09 µM (inactive) | 2.67 µM (inactive) | 2.67 µM (inactive) | 1.87 µM (inactive) | 0.524 µM (active) | 3.47 µM (inactive) | – | 2.84 µM (inactive) | 2.36 µM (inactive) | 2.68 µM (inactive) | – | 3.09 µM (inactive) |
| Clc1ccc2c(c1)CC1C[N+]3=C(CCCC3)C1=C2 (stereo not drawn) | 72.1 µM (inactive) | 39.6 µM (inactive) | 78.7 µM (inactive) | 89.9 µM (inactive) | 36.6 µM (inactive) | 75.3 µM (inactive) | 53.8 µM (inactive) | 54.2 µM (inactive) | > 100 µM (inactive) | 37.6 µM (inactive) | 60.7 µM (inactive) | – | 90.4 µM (inactive) | > 100 µM (inactive) | > 100 µM (inactive) | 47.9 µM (inactive) | 34 µM (inactive) | 43.9 µM (inactive) | > 100 µM (inactive) | 63.5 µM (inactive) |
| Cc1cccc(C)c1NC(=S)NC=C1C(=O)c2ccccc2C1=O | – | 6.78 µM (inactive) | 9.82 µM (inactive) | 23.2 µM (inactive) | 5.78 µM (inactive) | 3.61 µM (inactive) | 17.5 µM (inactive) | 7.5 µM (inactive) | 16.8 µM (inactive) | 10.5 µM (inactive) | 1.44 µM (inactive) | 3.07 µM (inactive) | 7.52 µM (inactive) | 15.3 µM (inactive) | 18.4 µM (inactive) | 6.85 µM (inactive) | 3.09 µM (inactive) | 12.4 µM (inactive) | 5.24 µM (inactive) | 12.5 µM (inactive) |
